{"source": "patent US5843916A", "about": "“Cyclic amp analogues, individually and in pairs, to inhibit neoplastic cell growth” (priority 1994, dated 1998)", "key": {"[1]": {"system": "RI cAMP receptor protein, Molt-4 leukemic cells", "test": "Photoaffinity labelling of RI cAMP receptor protein (FIG. 9A)", "type": "cell-based, human", "conditions": "three days; 8-Cl-cAMP 5 μM, DBcAMP 1 mM, 8-Cl-adenosine 5 μM"}, "[2]": {"system": "K-562", "test": "Growth inhibition of leukemic cells (Table 12)", "type": "cell-based", "conditions": "Homo sapiens, K562"}, "[3]": {"system": "c-myc protein, Molt-4 leukemic cells", "test": "Western blotting of c-myc protein (FIG. 9B)", "type": "cell-based, human", "conditions": "three days; 8-Cl-cAMP 5 μM, DBcAMP 1 mM, 8-Cl-adenosine 5 μM", "experimental": "The cells were grown in suspension culture in RPMI 1640 medium supplemented with 10% fetal bovine serum, penicillin (50 U/ml), streptomycin (500 μg/mL), 10 mM HEPES buffer, and extra glutamine. […] Surface antigen analysis of HL-60 cells was performed by flow cytometry using a panel of monoclonal antibodies reactive with either myeloid cells or monocytic cells. Terminal deoxynucleotidyl transferase (TdT) was assayed by an immunoperoxidase method using a TdT fluorescence kit. Western blotting of c-myc protein was performed using c-myc antibody 15206D11 (Scripps Clinic and Research Foundation, LaJolla, Calif.).\nM, marker proteins of known molecular weight. […] The resulting supernatants were used as cell lysates. […] ND=nondetectable."}, "[4]": {"system": "p21 ras protein, MCF-7 cells", "test": "Western blotting of p21 ras protein (Table 11, FIG. 7)", "type": "cell-based, human", "conditions": "for p21 (Relative Level): 3 days, 8-Cl-cAMP 10 μM, 8-Cl-adenosine 5 μM, DBcAMP 500 μM, control = 1.0 O.D.; for p21 level: three days", "experimental": "Western blotting of p21 protein was performed as described below. […] V is cell lysate from Ha-MuSV-transformed NIH3T3 clone 13-3B-4. M, marker proteins of known molecular weight.\nEach lane contained 100 micrograms of protein for SDS-PAGE.\nCellular proteins present in cell extracts were separated by 12% SDS-PAGE and transferred to nitrocellulose sheets in transfer buffer (25 mM Tris, 192 mM glycine, 20% methanol, pH 7.4). Nitrocellulose sheets were washed and first incubated with 3% bovine serum albumin in NTE-NP40 (50 mM Tris-HCl, pH 7.5, 150 mM NaCl, 2 mM EDTA, 0.1% Nonidet P-40) for three hours at 37° C. and then sequentially incubated with medium containing p21 monoclonal antiserum Y13-259 directed against the Ha-MuSV-encoded p21 for sixteen hours at 4° C., rabbit anti-rat IgG for 2.5 hours in an ice water bath, and 5×10^5 cpm/ml ^125 I-protein A for one hour in an ice water bath. The nitrocellulose sheets were air dried and exposed to Kodak XAR film for 12-36 hours at -20° C. Comparison of the resulting autoradiograms with others in which normal rat serum was substituted for p21 monoclonal antibody permitted identification of p21. To provide a reference p21, cell lysates were prepared from NIH 3T3 clone 13-3B-4 that had been transfected with HaMuSV DNA.\nThe levels of p21 protein are expressed relative to the p21 level in the untreated control cells which is set equal to 1.0 O.D."}, "[5]": {"system": "Molt-4", "test": "Growth inhibition of leukemic cells (Table 12)", "type": "cell-based, human", "conditions": "for IC50: Homo sapiens, MOLT-4"}, "[6]": {"system": "RI and RII cAMP receptor proteins, breast (MDA-MB-231) and colon (LS-174T) cancer cells", "test": "cAMP receptor protein levels, breast and colon cancer cells (FIG. 6)", "type": "cell-based, human", "conditions": "for RI and RII receptor levels: three days, FIG. 6", "experimental": "(§1) Photoactivated incorporation of 8-N3 [^32 P] was performed as described below.\n(§2) M is marker proteins of known molecular weight.\nThe incubations were carried out at 23° C. for 60 minutes in 96-well immunoplates. […] The gels were fixed, dried, and exposed to X-ray films overnight."}, "[7]": {"system": "breast and colon cancer lines (MCF-7, T-47D, ZR-75-1, MCF-7ras, MDA-MB-231, BT-20, HBL-100, LS-174T, WiDr, HT-29)", "test": "Growth inhibition of breast and colon cancer lines (FIG. 1)", "type": "cell-based, human"}, "[8]": {"system": "RI and RII cAMP receptor proteins, MDA-MB-231", "test": "Photoaffinity labelling of cAMP receptor proteins (Table 10, FIG. 6)", "type": "cell-based, human", "conditions": "3 days, 8-Cl and N^6-benzyl 10 μM, dibutyryl 1 mM; for relative level of RI / relative level of RII: control RI = 1.0 O.D.", "experimental": "as §1, §2\n(§3) Each lane contained 50 micrograms protein for SDS-PAGE.\n(§4) The incubations were carried out at 23° C. for 60 minutes in 96-well immunoplates. The reaction mixtures were then irradiated for 30 seconds at 254 nm, placing a Mineralite UVS-11 hand lamp directly onto the plate. The samples were mixed with 25 microliters of 3× sample buffer (3% SDS, 15% beta-mercaptoethanol, 30 mM Tris, 30% glycerol, 1% bromophenol blue saturated solution), boiled for 3 minutes, and centrifuged at 700 × g for five minutes. The samples containing 10-30 micrograms of protein were subjected to 0.05% SDS-12% PAGE. The gels were fixed, dried, and exposed to X-ray films overnight. The protein concentrations were determined by the method of Lowry et al., J. Biol. Chem. 193: 265-275, 1951, with bovine serum albumin as standard.\n(§5) The levels of the receptor proteins are expressed relative to the RI level in the untreated control cells of MDA-MB-231 and LS-174T which are each set equal to 1.0 O.D.; the scale was expanded to differentiate the lower intensity bands."}, "[9]": {"system": "RI and RII cAMP receptor proteins, LS-174T", "test": "Photoaffinity labelling of cAMP receptor proteins (Table 10, FIG. 6)", "type": "cell-based, human", "conditions": "3 days, 8-Cl and N^6-benzyl 10 μM, dibutyryl 1 mM; for relative level of RI / relative level of RII: control RI = 1.0 O.D.", "experimental": "as §1, §2, §3, §4, §5"}, "[10]": {"system": "breast (MCF-7) and colon (LS-174T) cancer cell lines", "test": "Growth inhibition of breast and colon cancer cells (Table 1)", "type": "cell-based, human", "conditions": "for inhibition at 50 µM: Homo sapiens", "in_short": "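MCF-7 and LS-174T cells seeded day −1, treated on day 0 and day 2; duplicate Coulter counts on days 3 and 4 after gentle trypsinization. Percent growth inhibition versus untreated controls from dose-response curves, averaged over ≥3 experiments.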"}, "[11]": {"system": "DMBA-induced mammary carcinomas", "test": "Growth of DMBA-induced mammary carcinomas, pellet (Table 4)", "type": "in vivo, rat", "conditions": "for tumor growth: 10 mg pellet for 8-Cl-cAMP, implanted twice every two weeks", "experimental": "Treated tumors regress almost 100% within 30 days.\n^b 8Cl-cAMP (20 mg pellet per rat, consisting of 10 mg 8Cl-cAMP and […]\nmg cholesterol), was implanted on day 0 and day 14."}, "[12]": {"system": "myc-K562", "test": "Growth inhibition of leukemic cells (Table 12)", "type": "cell-based", "conditions": "Homo sapiens"}, "[13]": {"conditions": "72 h, 50 μM, day 3, average (range), read-out: % Growth Inhibition, Day 3"}, "[14]": {"conditions": "96 h, 50 μM, day 4, average (range), read-out: % Growth Inhibition, Day 4"}}, "note": "Entries after “also recorded” stand apart in the source; their conditions may differ. Read-outs that look alike come from different tables or passages of the source.", "data": [{"smiles": "CCCC(=O)Nc1ncnc2c1ncn2[C@@H]1O[C@@H]2COP(=O)(O)O[C@H]2[C@H]1OC(=O)CCC", "note": "[DBcAMP, N^6, O^2' -dibutyryl-cAMP, reference compound]", "values": [{"measurement": "RI receptor protein level", "setting": "[1]", "value": "without appreciable change"}, {"measurement": "IC50", "setting": "[2]", "value": 1000, "unit": "µM"}, {"measurement": "c-myc protein level", "setting": "[3]", "value": "did not affect the c-myc protein level"}, {"measurement": "p21 (Relative Level)", "setting": "[4]", "value": "0.8 ± 0.1"}, {"measurement": "p21 level", "setting": "[4]", "value": "slight reduction in p21 level"}, {"measurement": "IC50", "setting": "[5]; read-out: Inhibition of Growth IC50, Molt-4 (symbol)", "value": "> 1000", "unit": "µM"}, {"measurement": "50% growth inhibition", "setting": "[5]; Molt-4", "value": "the 50% growth inhibition could not be obtained"}, {"measurement": "RI and RII receptor levels", "setting": "[6]", "value": "the RI and RII receptor levels remained unchanged; also recorded: did not appreciably affect the RI or RII receptor levels"}, {"measurement": "inhibition at 1000 µM", "setting": "[7]; Homo sapiens, 1 mM", "value": 15, "unit": "%"}, {"measurement": "RII/RI", "setting": "[8]", "value": 0.07}, {"measurement": "relative level of RI", "setting": "[8]", "value": "1.0 ± 0.1"}, {"measurement": "relative level of RII", "setting": "[8]", "value": "0.07 ± 0.01"}, {"measurement": "RII/RI", "setting": "[9]", "value": 0.19}, {"measurement": "relative level of RI", "setting": "[9]", "value": "0.80 ± 0.10"}, {"measurement": "relative level of RII", "setting": "[9]", "value": "0.15 ± 0.02"}, {"measurement": "growth inhibition", "setting": "[10]; 50 micromolar", "value": "no growth inhibition"}, {"measurement": "inhibition at 50 µM", "setting": "[10]; [13]", "value": 0, "unit": "%"}, {"measurement": "inhibition at 50 µM", "setting": "[10]; [14]", "value": 0, "unit": "%"}, {"measurement": "tumor growth", "setting": "[11]", "value": "only arrests this tumor growth without producing regression"}, {"measurement": "IC50", "setting": "[12]", "value": 1000, "unit": "µM"}]}, {"smiles": "Nc1ncnc2c1nc(Cl)n2[C@@H]1O[C@@H]2COP(=O)(O)O[C@H]2[C@H]1O", "note": "[8-Cl-cAMP, 8-chloro-adenosine 3': 5'-monophosphate]", "values": [{"measurement": "RI receptor protein level", "setting": "[1]", "value": "markedly decreased"}, {"measurement": "IC50", "setting": "[2]", "value": 20, "unit": "µM"}, {"measurement": "c-myc protein level", "setting": "[3]", "value": "marked reduction of c-myc protein level"}, {"measurement": "p21 (Relative Level)", "setting": "[4]", "value": "0.1 ± 0.01"}, {"measurement": "p21 level", "setting": "[4]", "value": "markedly decreased level of p21"}, {"measurement": "IC50", "setting": "[5]; read-out: Inhibition of Growth IC50, Molt-4", "value": 5, "unit": "µM"}, {"measurement": "decrease in the RI level", "setting": "[6]; densitometric tracings", "value": "70-80%"}, {"measurement": "increase in the ratio of RII to RI", "setting": "[6]; densitometric tracings", "value": "two- to three-fold increase"}, {"measurement": "RI and RII receptor levels", "setting": "[6]", "value": "the cAMP receptor protein with a molecular weight of 52,000 increased appreciably with concomitant decrease of the 48,000 RI receptor protein"}, {"measurement": "growth inhibition of cancer lines", "setting": "[7]; densitometry text", "value": "45-70%"}, {"measurement": "RII/RI", "setting": "[8]", "value": 0.60}, {"measurement": "relative level of RI", "setting": "[8]", "value": "0.25 ± 0.03"}, {"measurement": "relative level of RII", "setting": "[8]", "value": "0.15 ± 0.01"}, {"measurement": "RII/RI", "setting": "[9]", "value": 1.25}, {"measurement": "relative level of RI", "setting": "[9]", "value": "0.20 ± 0.02"}, {"measurement": "relative level of RII", "setting": "[9]", "value": "0.25 ± 0.02"}, {"measurement": "inhibition at 50 µM", "setting": "[10]; [13]", "value": 67, "unit": "%"}, {"measurement": "inhibition at 50 µM", "setting": "[10]; [14]", "value": 75, "unit": "%"}, {"measurement": "inhibition at 50 µM", "setting": "[10]; 50 micromolar, read-out: growth inhibition", "value": "40 to 75", "unit": "%"}, {"measurement": "tumor growth", "setting": "[11]", "value": "completely stopped tumor growth"}, {"measurement": "tumor regression", "setting": "[11]; 10 mg pellet, within 30 days", "value": "~100", "unit": "%"}, {"measurement": "Mean % of change in tumor volume", "setting": "[11]; pellet day 0 and day 14, day 30, mean ± S.E.", "value": "-96 ± 20", "unit": "%"}, {"measurement": "IC50", "setting": "[12]", "value": 20, "unit": "µM"}]}]}
